By IC50 is commonly meant the point on the concentration scale where inhibition reaches its midpoint. By half-life is commonly meant the time needed for the level to fall by half in the phase considered. Read a low half-life as rapid decline. As usually defined, the solubility is the dissolved amount per volume that the medium holds.

Among the data in patent US20230219965A1 (KSQ Therapeutics, Inc., priority 2020, published 2023) are IC50, half-life and solubility values, retold here.

Where two headings read alike, the source gives them in different places.

For one series, the target named is USP1/UAF1 enzyme (Homo sapiens, UniProt O94782). Kind of series: USP1/UAF1 deubiquitination assay (ubiquitin-rhodamine 110 substrate). In kind it is biochemical. The note with it: read-out: USP1 IC50 (Ub-Rho). Put shortly:
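0.05 nM USP1/UAF1 was preincubated 10 min with compounds (dose response from 10 μM) in 50 mM Tris-HCl pH 7.8, 0.5 mM EDTA, 0.01% BSA, 1 mM DTT, 0.01% Tween-20. 150 nM ubiquitin-rhodamine 110 started the reaction, read kinetically 30 min at Ex480/Em540; IC50 by four-parameter fit versus no-enzyme and DMSO controls.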

The subject of series [1] is Ub-PCNA levels in the nucleus of ES2 cells (USP1 activity). Kind of series: ES2 Ub-PCNA immunofluorescence (IF) assay. The note with it: Homo sapiens, ES-2; ES2 cells, 3 hours, Ub-PCNA immunofluorescence; read-out: USP1 IC50 (Ub-PCNA). In kind it is cell-based. Put shortly: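 Cells plated overnight, then compound-treated for 3 h at 37° C (0.3% DMSO final), methanol-fixed and stained with anti-Ub-PCNA plus DAPI. Per-nucleus Ub-PCNA intensity imaged; cells above the 95% cutoff of untreated wells counted as positive, and percent positive cells used to derive AC50.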

Series [2] in a line: Liver microsomal metabolic stability, rat liver microsomes (RLM). The note with it: rat, liver microsomes, t1/2 (min) in RLM, 1 μM compound, 1 mg/mL microsomes, NADPH. On the technique in general: Liver microsomes are a subcellular fraction often used to study metabolism.
Series [3] in a line: Liver microsomal metabolic stability, human liver microsomes (HLM). The note with it: human, liver microsomes.
Series [4] in a line: ADME solubility determination in PBS at pH 2.0 and pH 7.4. The class given is physicochemical. The note with it: phosphate buffered saline, 25 °C, thermodynamic from solid. Put shortly: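 Dried 10 mM DMSO stock residues taken up in PBS pH 7.4 or pH 2.0, shaken 24 h at 25° C. After centrifugation, supernatant quantified by LC-MS/MS against a standard of known concentration, with a dilution factor applied.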

The mark [5] stands for this setting: pH 2, aqueous buffer, PBS pH 2.0, 25° C., read-out: Solubility at pH 2.0.
Where [6] appears, read: pH 7.4, aqueous buffer, PBS pH 7.4, 25° C., read-out: Solubility at pH 7.4.

USP1/UAF1 enzyme, sequence (O94782 whole entry): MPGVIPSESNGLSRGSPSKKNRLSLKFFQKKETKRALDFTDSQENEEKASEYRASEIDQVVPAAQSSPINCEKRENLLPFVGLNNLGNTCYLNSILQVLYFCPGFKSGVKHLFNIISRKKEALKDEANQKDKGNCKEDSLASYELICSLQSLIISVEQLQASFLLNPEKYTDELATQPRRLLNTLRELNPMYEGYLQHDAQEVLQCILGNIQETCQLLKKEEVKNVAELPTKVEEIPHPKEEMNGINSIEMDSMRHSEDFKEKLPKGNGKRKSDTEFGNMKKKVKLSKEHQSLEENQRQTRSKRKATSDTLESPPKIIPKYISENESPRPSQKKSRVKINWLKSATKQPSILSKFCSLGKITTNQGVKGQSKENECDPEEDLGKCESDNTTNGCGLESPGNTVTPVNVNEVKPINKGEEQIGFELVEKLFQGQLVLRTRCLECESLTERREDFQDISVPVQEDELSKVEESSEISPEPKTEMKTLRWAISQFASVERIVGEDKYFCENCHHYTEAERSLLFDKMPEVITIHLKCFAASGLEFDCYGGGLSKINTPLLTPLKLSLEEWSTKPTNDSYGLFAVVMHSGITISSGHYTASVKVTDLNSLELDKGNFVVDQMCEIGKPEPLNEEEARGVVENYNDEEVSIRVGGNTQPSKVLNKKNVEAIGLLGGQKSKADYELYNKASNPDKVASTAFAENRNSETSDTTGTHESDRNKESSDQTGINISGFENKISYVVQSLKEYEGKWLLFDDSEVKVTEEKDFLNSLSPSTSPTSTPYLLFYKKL
USP1/UAF1 enzyme, sequence (Q8TAF3 whole entry partner): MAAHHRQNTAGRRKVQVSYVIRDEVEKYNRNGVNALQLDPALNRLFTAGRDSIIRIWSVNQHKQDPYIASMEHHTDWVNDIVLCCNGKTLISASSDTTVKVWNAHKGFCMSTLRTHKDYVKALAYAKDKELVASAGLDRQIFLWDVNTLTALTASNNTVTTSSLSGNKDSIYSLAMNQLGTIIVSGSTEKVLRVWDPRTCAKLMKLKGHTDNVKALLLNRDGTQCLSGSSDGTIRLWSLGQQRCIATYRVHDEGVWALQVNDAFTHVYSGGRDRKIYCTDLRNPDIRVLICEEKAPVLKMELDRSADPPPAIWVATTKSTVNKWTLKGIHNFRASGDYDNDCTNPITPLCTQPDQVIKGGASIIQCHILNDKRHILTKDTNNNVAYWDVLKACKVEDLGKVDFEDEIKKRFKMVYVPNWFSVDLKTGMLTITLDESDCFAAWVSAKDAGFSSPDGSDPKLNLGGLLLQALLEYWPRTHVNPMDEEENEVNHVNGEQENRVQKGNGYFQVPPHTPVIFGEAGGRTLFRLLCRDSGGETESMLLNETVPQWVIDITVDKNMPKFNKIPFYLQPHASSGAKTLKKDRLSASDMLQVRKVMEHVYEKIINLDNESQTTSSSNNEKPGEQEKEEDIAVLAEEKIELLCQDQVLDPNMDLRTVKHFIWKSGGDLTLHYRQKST

Regarding `CC(C)n1cc(C(F)(F)F)nc1-c1ccc(CN2C(=O)CCn3nc(-c4c(Cl)cnn4C(C)C)nc32)cc1F` [Example 40], the values for the half-maximal inhibitory concentration (IC50) (at USP1/UAF1 enzyme; in series [1]) were less than 100 nM and 100 to 500 nM, respectively. Besides, the half-life at 1 μM in series [2] and in series [3] was more than 25 min in each case. The solubility at 24 h in series [4] (setting [5]) and in series [4] (setting [6]) was less than 10 µM in each case.

Take `CC(C)n1cc(C(F)(F)F)nc1-c1ccc(CN2C(=O)CCn3nc(-c4c(Cl)cnn4C(C)C)nc32)cc1` [Example 41]: the half-inhibitory concentration (IC50) (on USP1/UAF1 enzyme; in series [1]) was less than 100 nM in each case. Further, the half-life at 1 μM in series [2] and in series [3] was more than 25 min throughout. In addition, the solubility at 24 h in series [4] (setting [5]) and in series [4] (setting [6]) was less than 10 µM throughout.

For `CCn1cc(C(F)(F)F)nc1-c1ccc(CN2C(=O)CCn3nc(-c4c(Cl)cnn4C(C)C)nc32)cc1F` [Example 42], the concentration for half-maximal inhibition (IC50) (on USP1/UAF1 enzyme; in series [1]) was less than 100 nM in each case. Also, the half-life at 1 μM in series [2] and in series [3] was more than 25 min throughout. Further, the solubility at 24 h in series [4] (setting [5]) and in series [4] (setting [6]) was less than 10 µM throughout.

With `COc1ncnc(C2CC2)c1-c1nc2n(n1)CCC(=O)N2Cc1ccc(-c2nc(C(F)(F)F)cn2C)cc1` [Example 43], the IC50 at USP1/UAF1 enzyme is less than 100 nM; in series [1] it was 100 to 500 nM. For the same molecule, the half-life at 1 μM in series [2] and in series [3] was more than 25 min throughout. The solubility at 24 h in series [4] (setting [5]) was not below 10 µM; in series [4] (setting [6]), less than 10 µM.

Take `CCn1cc(C(F)(F)F)nc1-c1ccc(CN2C(=O)CCn3nc(-c4c(OC)ncnc4C4CC4)nc32)cc1F` [Example 44]: the IC50 (on USP1/UAF1 enzyme; in series [1]) was less than 100 nM throughout. Further, the half-life at 1 μM in series [2] and in series [3] was more than 25 min in each case. Further, the solubility at 24 h in series [4] (setting [5]) and in series [4] (setting [6]) was less than 10 µM each time.

Turning to `COc1cc(CN2C(=O)CCn3nc(-c4c(OC)ncnc4C(C)C)nc32)ccc1-c1nc(C(F)(F)F)cn1C(C)C` [Example 46], the IC50 (at USP1/UAF1 enzyme; in series [1]) was 100 to 500 nM throughout. The half-life at 1 μM in series [2] and in series [3] was more than 25 min throughout. In addition, the solubility at 24 h in series [4] (setting [5]) and in series [4] (setting [6]) was not below 10 µM each time.

`CCn1cc(C(F)(F)F)nc1-c1ccc(CN2c3cc(-c4c(OC)ncnc4C4CC4)nn3CCC2C)cc1F` (stereo not drawn) [Example 49]: the half-inhibitory concentration (IC50) (at USP1/UAF1 enzyme; in series [1]) was less than 100 nM throughout. In addition, the half-life at 1 μM in series [2] and in series [3] was less than 25 min in each case. The figures for the solubility at 24 h in series [4] (setting [5]) and in series [4] (setting [6]) were not below 10 µM and less than 10 µM, respectively.

`CC1CCn2nc(-c3c(Cl)cnn3C(C)C)cc2N1Cc1ccc(-c2nc(C(F)(F)F)cn2C(C)C)c(F)c1` (stereo not drawn) [Example 50]: the IC50 (at USP1/UAF1 enzyme; in series [1]) was less than 100 nM throughout. Moreover, the half-life at 1 μM in series [2] and in series [3] was less than 25 min in each case. The solubility at 24 h in series [4] (setting [5]) and in series [4] (setting [6]) was less than 10 µM throughout.

With `Cc1cnn(C(C)C)c1-c1cc2n(n1)CCCN2Cc1ccc(-c2nc(C(F)(F)F)nn2C)cc1` [Example 53], the half-inhibitory concentration (IC50) on USP1/UAF1 enzyme was less than 100 nM; in series [1], 100 to 500 nM. Further, the half-life at 1 μM in series [2] and in series [3] was less than 25 min each time. The solubility at 24 h in series [4] (setting [5]) and in series [4] (setting [6]) was less than 10 µM in each case.

Consider `Cc1cnn(C(C)C)c1-c1cc2n(n1)CCCN2Cc1ccc(-c2nc(C(F)(F)F)cn2C(C)C)cc1` [Example 54], for which the half-maximal inhibitory concentration (IC50) (on USP1/UAF1 enzyme; in series [1]) was less than 100 nM throughout. Besides, the half-life at 1 μM in series [2] and in series [3] was less than 25 min in each case. The solubility at 24 h was not below 10 µM in series [4] (setting [5]) and less than 10 µM in series [4] (setting [6]).

For the molecule `Cc1cnn(C(C)C)c1-c1cc2n(n1)CCCN2Cc1ccc(-c2nc(C(F)(F)F)cn2C)c(F)c1` [Example 55], the IC50 (on USP1/UAF1 enzyme; in series [1]) was less than 100 nM throughout. Further, the half-life at 1 μM in series [2] and in series [3] was less than 25 min each time. For the same molecule, the solubility at 24 h was not below 10 µM in series [4] (setting [5]) and less than 10 µM in series [4] (setting [6]).

With `COc1cc(C(F)(F)F)nn1-c1ccc(CN2CCCn3nc(-c4c(C)cnn4C(C)C)cc32)cc1F` [Example 57], the IC50 (on USP1/UAF1 enzyme; in series [1]) was less than 100 nM each time. Besides, the half-life at 1 μM in series [2] and in series [3] was less than 25 min in each case. For the same molecule, the solubility at 24 h in series [4] (setting [5]) and in series [4] (setting [6]) was less than 10 µM throughout.

For `COc1ncnc(C2CC2)c1-c1cc2n(n1)CCCN2Cc1ccc(-c2nc(C(F)(F)F)cn2C(C)C)cc1` [Example 58], the IC50 (at USP1/UAF1 enzyme; in series [1]) was less than 100 nM in each case. The half-life at 1 μM in series [2] and in series [3] was less than 25 min in each case. Besides, the solubility at 24 h in series [4] (setting [5]) is not below 10 µM; in series [4] (setting [6]) it was less than 10 µM.

As to `CC(C)n1cc(C(F)(F)F)nc1-c1ccc(CN2CCCn3nc(-c4c(Cl)cnn4C(C)C)cc32)cc1F` [Example 59], the IC50 (on USP1/UAF1 enzyme; in series [1]) was less than 100 nM each time. Besides, the half-life at 1 μM in series [2] and in series [3] was less than 25 min throughout. Also, the solubility at 24 h in series [4] (setting [5]) and in series [4] (setting [6]) was less than 10 µM throughout.

In the case of `CC(C)n1ncc(Cl)c1-c1cc2n(n1)CCCN2Cc1ccc(-c2nc(C(F)(F)F)cn2C)c(F)c1` [Example 61], the IC50 (at USP1/UAF1 enzyme; in series [1]) was less than 100 nM in each case. Further, the half-life at 1 μM in series [2] and in series [3] was less than 25 min in each case. Moreover, the solubility at 24 h in series [4] (setting [5]) and in series [4] (setting [6]) was less than 10 µM throughout.

Turning to `CC(C)n1ncc(Cl)c1-c1cc2n(n1)CCCN2Cc1ccc(-c2nc(C(F)(F)F)cn2CCF)cc1` [Example 62], the IC50 (at USP1/UAF1 enzyme; in series [1]) was less than 100 nM throughout. The half-life at 1 μM in series [2] and in series [3] was less than 25 min in each case. Further, the solubility at 24 h in series [4] (setting [5]) and in series [4] (setting [6]) was less than 10 µM in each case.

With `COc1ncnc(C2CC2)c1-c1cc2n(n1)CCCN2Cc1ccc(-c2nc(C(F)(F)F)cn2C(C)C)c(F)c1` [Example 63], the 50% inhibitory concentration (IC50) (at USP1/UAF1 enzyme; in series [1]) was less than 100 nM each time. The half-life at 1 μM in series [2] and in series [3] was less than 25 min throughout. For the same molecule, the solubility at 24 h in series [4] (setting [5]) is not below 10 µM; in series [4] (setting [6]), less than 10 µM.

With `CCn1cc(C(F)(F)F)nc1-c1ccc(CN2CCCn3nc(-c4c(OC)ncnc4C4CC4)cc32)cc1F` [Example 64], the IC50 (on USP1/UAF1 enzyme; in series [1]) was less than 100 nM each time. Also, the half-life at 1 μM in series [2] and in series [3] was less than 25 min each time. In addition, the solubility at 24 h in series [4] (setting [5]) was not below 10 µM; in series [4] (setting [6]) it was less than 10 µM.

On to `CCn1cc(C(F)(F)F)nc1-c1ccc(C(C)N2CCCn3nc(-c4c(Cl)cnn4C(C)C)cc32)cc1` (stereo not drawn) [Example 65], for which the half-inhibitory concentration (IC50) (on USP1/UAF1 enzyme; in series [1]) was less than 100 nM each time. In addition, the half-life at 1 μM in series [2] and in series [3] was less than 25 min each time. Also, the solubility at 24 h in series [4] (setting [5]) and in series [4] (setting [6]) was less than 10 µM in each case.

As for `CCn1cc(C(F)(F)F)nc1-c1ccc(C(C)N2CCCn3nc(-c4c(OC)ncnc4C4CC4)cc32)cc1` (stereo not drawn) [Example 66], the IC50 (on USP1/UAF1 enzyme; in series [1]) was less than 100 nM throughout. The half-life at 1 μM in series [2] and in series [3] was less than 25 min throughout. In addition, the solubility at 24 h in series [4] (setting [5]) is not below 10 µM; in series [4] (setting [6]), less than 10 µM.

As for `Cc1cnn(C(C)C)c1-c1cc2n(n1)CCC(=O)N2Cc1ccc(-c2nc(C(F)(F)F)c[nH]2)cc1` [Example 70], the values for the concentration for half-maximal inhibition (IC50) (at USP1/UAF1 enzyme; in series [1]) were 100 to 500 nM and more than 500 nM, respectively. The half-life at 1 μM in series [2] and in series [3] was less than 25 min each time. The solubility at 24 h in series [4] (setting [5]) and in series [4] (setting [6]) was less than 10 µM throughout.

On to `CCn1cc(C(F)(F)F)nc1-c1ccc(CN2C(=O)CCn3nc(-c4c(OC)ncnc4C4CC4)cc32)cc1` [Example 71, 2-(4-cyclopropyl-6-methoxypyrimidin-5-yl)-4-(4-(1-ethyl-4-(trifluoromethyl)-1H-imidazol-2-yl)benzyl)-6,7-dihydropyrazolo[1,5-α]pyrimidin-5(4H)-one], for which the IC50 (on USP1/UAF1 enzyme; in series [1]) was less than 100 nM in each case. Further, the half-life at 1 μM in series [2] and in series [3] was more than 25 min throughout. For the same molecule, the solubility at 24 h in series [4] (setting [5]) and in series [4] (setting [6]) was less than 10 µM throughout.

`COc1ncnc(C2CC2)c1-c1cc2n(n1)CCC(=O)N2Cc1ccc(-c2nc(C(F)(F)F)cn2C(C)C)cc1` [Example 72]: the IC50 on USP1/UAF1 enzyme is less than 100 nM; in series [1], 100 to 500 nM. The half-life at 1 μM in series [2] and in series [3] was more than 25 min throughout. Moreover, the solubility at 24 h in series [4] (setting [5]) and in series [4] (setting [6]) was less than 10 µM each time.
